Laboratory results taken from PubChem BioAssay (NCI).
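GI50: concentration for 50% inhibition of growth. TGI: concentration producing complete growth inhibition.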

What was measured:
Assay in all cases: NCI-60 cell line screen, 384-well format
NCI-H522 lung = test system: NCI-H522 lung
HOP-92 NSCLC = test system: HOP-92 NSCLC
ACHN renal = test system: ACHN renal
COLO 205 colon = test system: COLO 205 colon
NCI-H322M lung = test system: NCI-H322M lung
IGROV1 ovarian = test system: IGROV1 ovarian
SK-MEL-5 melanoma = test system: SK-MEL-5 melanoma
K-562 leukemia = test system: K-562 leukemia
U251 glioblastoma = test system: U251 glioblastoma
A549 NSCLC = test system: A549 NSCLC
OVCAR-4 ovarian = test system: OVCAR-4 ovarian
SK-OV-3 ovarian = test system: SK-OV-3 ovarian
SF-295 CNS = test system: SF-295 CNS
MCF7 breast = test system: MCF7 breast
T-47D breast = test system: T-47D breast
HCT-116 colon = test system: HCT-116 colon
SW-620 colon = test system: SW-620 colon
A498 renal = test system: A498 renal
UACC-62 melanoma = test system: UACC-62 melanoma
RPMI-8226 leukemia = test system: RPMI-8226 leukemia
MDA-MB-231 breast = test system: MDA-MB-231 breast
MALME-3M melanoma = test system: MALME-3M melanoma
NCI/ADR-RES ovarian = test system: NCI/ADR-RES ovarian
MOLT-4 leukemia = test system: MOLT-4 leukemia
SF-268 CNS = test system: SF-268 CNS
BT-549 breast = test system: BT-549 breast
LOX IMVI melanoma = test system: LOX IMVI melanoma
DU-145 prostate = test system: DU-145 prostate
SF-539 CNS = test system: SF-539 CNS
OVCAR-3 ovarian = test system: OVCAR-3 ovarian
NCI-H226 lung = test system: NCI-H226 lung
UACC-257 melanoma = test system: UACC-257 melanoma
HOP-62 NSCLC = test system: HOP-62 NSCLC
SR leukemia = test system: SR leukemia
RXF 393 renal = test system: RXF 393 renal
TK-10 renal = test system: TK-10 renal
786-0 renal = test system: 786-0 renal
UO-31 renal = test system: UO-31 renal
SNB-19 CNS = test system: SNB-19 CNS
SK-MEL-2 melanoma = test system: SK-MEL-2 melanoma
SNB-75 CNS = test system: SNB-75 CNS
NCI-H460 NSCLC = test system: NCI-H460 NSCLC
KM12 colon = test system: KM12 colon
EKVX NSCLC = test system: EKVX NSCLC
MDA-MB-468 breast = test system: MDA-MB-468 breast
CCRF-CEM leukemia = test system: CCRF-CEM leukemia
CAKI-1 renal = test system: CAKI-1 renal

Q: C[C@H](NC(=O)c1c(N)nn2cccnc12)c1cc2cccc(C#Cc3cnn(C)c3)c2c(=O)n1-c1ccccc1 was tested. Which GI50 (NCI-H522 lung) did it give?
A: 4.55 µM

Q: And the TGI (NCI-H522 lung)?
A: 18.7 µM

Q: What about the GI50 (HOP-92 NSCLC) of the same compound?
A: 0.47 µM

Q: And the TGI (HOP-92 NSCLC)?
A: 4.04 µM

Q: What about the GI50 (ACHN renal) of the same compound?
A: 4.31 µM

Q: And the TGI (ACHN renal)?
A: 19.4 µM

Q: What about the GI50 (COLO 205 colon) of the same compound?
A: 8.8 µM

Q: And the TGI (COLO 205 colon)?
A: 22.7 µM

Q: And the GI50 (NCI-H322M lung)?
A: 9.35 µM

Q: And the TGI (NCI-H322M lung)?
A: 23.9 µM

Q: And the GI50 (IGROV1 ovarian)?
A: 0.559 µM

Q: What about the TGI (IGROV1 ovarian) of the same compound?
A: 2.1 µM

Q: What about the GI50 (SK-MEL-5 melanoma) of the same compound?
A: 5.38 µM

Q: And the TGI (SK-MEL-5 melanoma)?
A: 20 µM

Q: And the GI50 (K-562 leukemia)?
A: 7.56 µM

Q: What about the TGI (K-562 leukemia) of the same compound?
A: 20.3 µM

Q: What about the GI50 (U251 glioblastoma) of the same compound?
A: 12.3 µM

Q: What about the TGI (U251 glioblastoma) of the same compound?
A: 25.1 µM

Q: What about the GI50 (A549 NSCLC) of the same compound?
A: 4.45 µM

Q: And the TGI (A549 NSCLC)?
A: 17.6 µM

Q: And the GI50 (OVCAR-4 ovarian)?
A: 11.9 µM

Q: And the TGI (OVCAR-4 ovarian)?
A: 25.4 µM

Q: What about the GI50 (SK-OV-3 ovarian) of the same compound?
A: 2.19 µM

Q: And the TGI (SK-OV-3 ovarian)?
A: 12.5 µM

Q: And the GI50 (SF-295 CNS)?
A: 4.14 µM

Q: And the TGI (SF-295 CNS)?
A: 17.1 µM

Q: And the GI50 (MCF7 breast)?
A: 1.25 µM

Q: What about the TGI (MCF7 breast) of the same compound?
A: 6.84 µM

Q: What about the GI50 (T-47D breast) of the same compound?
A: 0.375 µM

Q: What about the TGI (T-47D breast) of the same compound?
A: 2.41 µM

Q: What about the GI50 (HCT-116 colon) of the same compound?
A: 6.64 µM

Q: What about the TGI (HCT-116 colon) of the same compound?
A: 20 µM

Q: And the GI50 (SW-620 colon)?
A: 15.3 µM

Q: What about the TGI (SW-620 colon) of the same compound?
A: 28.7 µM

Q: What about the GI50 (A498 renal) of the same compound?
A: 2.72 µM

Q: And the TGI (A498 renal)?
A: 14.8 µM

Q: What about the GI50 (UACC-62 melanoma) of the same compound?
A: 1.54 µM

Q: What about the TGI (UACC-62 melanoma) of the same compound?
A: 12.1 µM

Q: What about the GI50 (RPMI-8226 leukemia) of the same compound?
A: 1.71 µM

Q: What about the TGI (RPMI-8226 leukemia) of the same compound?
A: 3.73 µM

Q: And the GI50 (MDA-MB-231 breast)?
A: 6.03 µM

Q: And the TGI (MDA-MB-231 breast)?
A: 18.3 µM

Q: And the GI50 (MALME-3M melanoma)?
A: 6.62 µM

Q: And the TGI (MALME-3M melanoma)?
A: 20.5 µM

Q: What about the GI50 (NCI/ADR-RES ovarian) of the same compound?
A: 5.28 µM

Q: What about the TGI (NCI/ADR-RES ovarian) of the same compound?
A: 16.2 µM

Q: And the GI50 (MOLT-4 leukemia)?
A: 0.847 µM

Q: And the TGI (MOLT-4 leukemia)?
A: 2.21 µM

Q: And the GI50 (SF-268 CNS)?
A: 2.02 µM

Q: What about the TGI (SF-268 CNS) of the same compound?
A: 9.93 µM

Q: What about the GI50 (BT-549 breast) of the same compound?
A: 1.48 µM

Q: What about the TGI (BT-549 breast) of the same compound?
A: 9.11 µM

Q: What about the GI50 (LOX IMVI melanoma) of the same compound?
A: 2.95 µM

Q: What about the TGI (LOX IMVI melanoma) of the same compound?
A: 12.7 µM

Q: What about the GI50 (DU-145 prostate) of the same compound?
A: 7.97 µM

Q: What about the TGI (DU-145 prostate) of the same compound?
A: 23.8 µM

Q: And the GI50 (SF-539 CNS)?
A: 4.67 µM

Q: And the TGI (SF-539 CNS)?
A: 17 µM

Q: What about the GI50 (OVCAR-3 ovarian) of the same compound?
A: 2.93 µM

Q: And the TGI (OVCAR-3 ovarian)?
A: 14.9 µM

Q: And the GI50 (NCI-H226 lung)?
A: 3.95 µM

Q: And the TGI (NCI-H226 lung)?
A: 16.3 µM

Q: What about the GI50 (UACC-257 melanoma) of the same compound?
A: 8.67 µM

Q: What about the TGI (UACC-257 melanoma) of the same compound?
A: 22.7 µM

Q: And the GI50 (HOP-62 NSCLC)?
A: 7.24 µM

Q: What about the TGI (HOP-62 NSCLC) of the same compound?
A: 20.4 µM

Q: What about the GI50 (SR leukemia) of the same compound?
A: 4.16 µM

Q: What about the TGI (SR leukemia) of the same compound?
A: 16.9 µM

Q: And the GI50 (RXF 393 renal)?
A: 1.3 µM

Q: And the TGI (RXF 393 renal)?
A: 5.68 µM

Q: And the GI50 (TK-10 renal)?
A: 3.93 µM

Q: What about the TGI (TK-10 renal) of the same compound?
A: 17.3 µM

Q: What about the GI50 ([…]-0 renal) of the same compound?
A: 4.91 µM

Q: And the TGI (786-0 renal)?
A: 17.2 µM

Q: And the GI50 (UO-31 renal)?
A: 3.18 µM

Q: And the TGI (UO-31 renal)?
A: 14.1 µM

Q: What about the GI50 (SNB-19 CNS) of the same compound?
A: 13 µM

Q: What about the TGI (SNB-19 CNS) of the same compound?
A: 26.5 µM

Q: And the GI50 (SK-MEL-2 melanoma)?
A: 12.4 µM

Q: What about the TGI (SK-MEL-2 melanoma) of the same compound?
A: 24.9 µM

Q: And the GI50 (SNB-75 CNS)?
A: 0.806 µM

Q: And the TGI (SNB-75 CNS)?
A: 4.38 µM

Q: And the GI50 (NCI-H460 NSCLC)?
A: 3.71 µM

Q: And the TGI (NCI-H460 NSCLC)?
A: 16.7 µM

Q: And the GI50 (KM12 colon)?
A: 10.3 µM

Q: What about the TGI (KM12 colon) of the same compound?
A: 23.2 µM

Q: And the GI50 (EKVX NSCLC)?
A: 2.6 µM

Q: And the TGI (EKVX NSCLC)?
A: 15.3 µM

Q: What about the GI50 (MDA-MB-468 breast) of the same compound?
A: 0.507 µM

Q: And the TGI (MDA-MB-468 breast)?
A: 3.34 µM

Q: What about the GI50 (CCRF-CEM leukemia) of the same compound?
A: 0.0549 µM

Q: What about the TGI (CCRF-CEM leukemia) of the same compound?
A: 1.78 µM

Q: What about the GI50 (CAKI-1 renal) of the same compound?
A: 1.28 µM

Q: And the TGI (CAKI-1 renal)?
A: 15.7 µM
